Assay results reported in ChEMBL document CHEMBL1130502, “Lipopeptide antifungal agents: Amine conjugates of the semi-synthetic pneumocandins L-731,373 and L-733,560” (Bioorg Med Chem Lett, 1997).
Values after ≈ are worked out from the molar mass of the structure shown. *1 amine or outer side, *2 acyl side, *3 side chain or, on linkers, in order; H or OH if unused. Where a SMILES comes first, the peptide text is derived from it. Bridges are numbered along the chain shown (N, C = ends). [ ]: non-standard residue; d: D form. The star is where a group is joined. ξ: configuration not given here. ξOrn(4R-OH,5R-OH) = O=C(C(C[C@@H](O)[C@@H](O)N[*:3])N[*:1])[*:2]; hTyr(3S-OH,4S-OH) = N[C@H](C(=O)O)[C@H](O)[C@@H](O)c1ccc(O)cc1; Orn(3R-OH) = NCC[C@@H](O)[C@H](N)C(=O)O; X2 = O=C(C1CN([*:1])C[C@@H]1O)[*:2]; ξPro(4R-OH) = O=C(O)C1C[C@@H](O)CN1; X1 = CCC(C)CC(C)CCCCCCCCC(=O)*

Experiments:
Mus musculus [1] = species on record: Mus musculus; assay: […] anti-candida activity expressed as ED99.9 in a mouse model of disseminated candidiasis (TOKA); assay type: functional
Mus musculus [2] = species on record: Mus musculus; assay: Percentage of mice with complete eradication of candida in kidneys; assay type: functional, Kidney
[3] = Acute toxicity in mice after intravenous administration; settings: mouse, in vivo
1,3-beta-glucan synthase = 1,3-beta-glucan synthase (Candida glabrata, UniProt F5BCZ9); assay: Inhibition of 1,3-beta-glucan synthase; set-up: species or system Candida glabrata CBS 138
Sequence of 1,3-beta-glucan synthase (F5BCZ9 whole entry): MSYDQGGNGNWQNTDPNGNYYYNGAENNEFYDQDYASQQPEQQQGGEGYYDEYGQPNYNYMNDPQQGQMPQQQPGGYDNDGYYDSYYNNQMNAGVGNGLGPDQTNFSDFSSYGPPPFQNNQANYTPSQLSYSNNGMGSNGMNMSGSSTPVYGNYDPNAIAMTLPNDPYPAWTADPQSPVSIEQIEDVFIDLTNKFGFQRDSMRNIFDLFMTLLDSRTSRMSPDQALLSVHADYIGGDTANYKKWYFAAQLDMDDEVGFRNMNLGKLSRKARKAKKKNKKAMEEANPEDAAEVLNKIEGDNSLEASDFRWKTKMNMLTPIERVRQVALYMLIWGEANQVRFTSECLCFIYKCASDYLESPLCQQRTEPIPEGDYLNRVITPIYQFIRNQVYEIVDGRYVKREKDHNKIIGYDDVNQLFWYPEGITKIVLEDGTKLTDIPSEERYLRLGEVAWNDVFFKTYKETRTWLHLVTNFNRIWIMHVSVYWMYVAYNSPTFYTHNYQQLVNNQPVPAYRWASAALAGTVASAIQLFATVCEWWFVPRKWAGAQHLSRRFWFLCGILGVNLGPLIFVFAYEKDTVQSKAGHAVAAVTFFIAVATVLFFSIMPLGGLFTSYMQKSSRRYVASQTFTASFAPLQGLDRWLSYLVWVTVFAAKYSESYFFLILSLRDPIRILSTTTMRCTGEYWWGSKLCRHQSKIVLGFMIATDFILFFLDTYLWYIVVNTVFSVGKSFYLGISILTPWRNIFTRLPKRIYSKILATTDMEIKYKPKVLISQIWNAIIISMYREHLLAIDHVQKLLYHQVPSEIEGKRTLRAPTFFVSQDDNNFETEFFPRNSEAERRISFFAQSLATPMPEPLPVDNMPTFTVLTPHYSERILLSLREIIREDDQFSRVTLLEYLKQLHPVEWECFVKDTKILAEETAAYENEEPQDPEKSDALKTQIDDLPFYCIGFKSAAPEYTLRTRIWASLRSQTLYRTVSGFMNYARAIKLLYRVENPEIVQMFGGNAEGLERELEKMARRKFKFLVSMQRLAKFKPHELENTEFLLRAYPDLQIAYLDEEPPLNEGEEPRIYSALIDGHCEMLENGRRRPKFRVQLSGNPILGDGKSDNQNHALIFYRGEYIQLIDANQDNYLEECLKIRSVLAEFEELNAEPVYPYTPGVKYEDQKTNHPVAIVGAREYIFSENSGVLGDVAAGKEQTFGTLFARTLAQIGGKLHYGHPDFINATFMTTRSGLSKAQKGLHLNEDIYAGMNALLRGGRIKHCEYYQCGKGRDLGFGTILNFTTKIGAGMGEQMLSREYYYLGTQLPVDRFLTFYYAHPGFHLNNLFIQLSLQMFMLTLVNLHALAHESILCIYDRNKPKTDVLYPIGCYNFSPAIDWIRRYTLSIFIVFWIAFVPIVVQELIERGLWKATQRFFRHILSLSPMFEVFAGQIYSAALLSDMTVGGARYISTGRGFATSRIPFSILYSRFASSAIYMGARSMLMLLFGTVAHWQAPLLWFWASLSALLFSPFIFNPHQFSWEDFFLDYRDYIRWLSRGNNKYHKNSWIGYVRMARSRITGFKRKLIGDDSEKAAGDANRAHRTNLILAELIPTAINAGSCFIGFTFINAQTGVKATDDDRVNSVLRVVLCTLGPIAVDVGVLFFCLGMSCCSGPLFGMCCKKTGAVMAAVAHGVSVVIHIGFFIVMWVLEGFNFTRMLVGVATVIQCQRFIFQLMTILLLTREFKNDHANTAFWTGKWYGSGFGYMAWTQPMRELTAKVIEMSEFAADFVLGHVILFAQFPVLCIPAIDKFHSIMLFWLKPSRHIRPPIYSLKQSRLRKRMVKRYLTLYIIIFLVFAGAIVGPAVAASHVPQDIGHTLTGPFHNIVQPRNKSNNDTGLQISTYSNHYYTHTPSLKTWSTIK

Candida albicans = assay: Tested for minimum fungicidal concentration (MFC) against Candida albicans (MY 1055); assay type: functional
Mus musculus [4] = assay: In vivo effective intraperitoneal dose to achieve least 50% survival in a mouse model of disseminated aspergillosis; assay type: functional; settings: ip

| SMILES | ED99.9 (Mus musculus [1]) [mg/kg] | Sterilized (Mus musculus [2]) [%] | Dose [3] [mg/kg] | IC50 (1,3-beta-glucan synthase) [nM] | MFC (Candida albicans) [µg/mL] | ED50 (Mus musculus [4]) [mg/kg] |
| --- | --- | --- | --- | --- | --- | --- |
| CCC(C)CC(C)CCCCCCCCC(=O)NC1C[C@@H](O)[C@@H](O)NC(=O)C2CN(C[C@@H]2O)C(=O)[C@H]([C@H](O)CCNC(=O)[C@@H](N)CCCN)NC(=O)[C@H]([C@H](O)[C@@H](O)c2ccc(O)cc2)NC(=O)C2C[C@@H](O)CN2C(=O)[C@H]([C@@H](C)O)NC1=O (stereo partly drawn) | 0.375 | 20 | > 200 | 3 | < 0.06 |  |
| CCC(C)CC(C)CCCCCCCCC(=O)NC1C[C@@H](O)[C@@H](OCCN)NC(=O)C2CN(C[C@@H]2O)C(=O)[C@H]([C@H](O)CCNC(=O)[C@@H](N)CN)NC(=O)[C@H]([C@H](O)[C@@H](O)c2ccc(O)cc2)NC(=O)C2C[C@@H](O)CN2C(=O)[C@H]([C@@H](C)O)NC1=O (stereo partly drawn) | 0.375 | 100 | > 100 | 4 | 1 (≈ 0.847 µM) | 0.07 |
| CCC(C)CC(C)CCCCCCCCC(=O)NC1C[C@@H](O)[C@@H](O)NC(=O)C2CN(C[C@@H]2O)C(=O)[C@H]([C@H](O)CCNC(C)=O)NC(=O)[C@H]([C@H](O)[C@@H](O)c2ccc(O)cc2)NC(=O)C2C[C@@H](O)CN2C(=O)[C@H]([C@@H](C)O)NC1=O (stereo partly drawn) | 12 | 0 | > 250 | 300 | 2 (≈ 1.83 µM) |  |
| CCC(C)CC(C)CCCCCCCCC(=O)NC1C[C@@H](O)[C@@H](OCCN)NC(=O)C2CN(C[C@@H]2O)C(=O)[C@H]([C@H](O)CCNC(=O)[C@@H](N)CCN)NC(=O)[C@H]([C@H](O)[C@@H](O)c2ccc(O)cc2)NC(=O)C2C[C@@H](O)CN2C(=O)[C@H]([C@@H](C)O)NC1=O (stereo partly drawn) | 0.09 | 0 | 100 | 6 | 0.5 (≈ 0.419 µM) |  |
| CCC(C)CC(C)CCCCCCCCC(=O)NC1C[C@@H](O)[C@@H](O)NC(=O)C2CN(C[C@@H]2O)C(=O)[C@H]([C@H](O)CCNC(=O)[C@@H](N)CCN)NC(=O)[C@H]([C@H](O)[C@@H](O)c2ccc(O)cc2)NC(=O)C2C[C@@H](O)CN2C(=O)[C@H]([C@@H](C)O)NC1=O (stereo partly drawn) | 0.375 | 60 | > 250 | 60 | 0.25 (≈ 0.217 µM) |  |
| CCC(C)CC(C)CCCCCCCCC(=O)NC1C[C@@H](O)[C@@H](O)NC(=O)C2CN(C[C@@H]2O)C(=O)[C@H]([C@H](O)CCNC(=O)[C@@H](N)CCCCN)NC(=O)[C@H]([C@H](O)[C@@H](O)c2ccc(O)cc2)NC(=O)C2C[C@@H](O)CN2C(=O)[C@H]([C@@H](C)O)NC1=O (stereo partly drawn) | 0.375 | 20 | 150 | 10 | < 0.06 |  |
| CCC(C)CC(C)CCCCCCCCC(=O)NC1C[C@@H](O)[C@@H](O)NC(=O)C2CN(C[C@@H]2O)C(=O)[C@H]([C@H](O)CCNC(=O)CCCCCN)NC(=O)[C@H]([C@H](O)[C@@H](O)c2ccc(O)cc2)NC(=O)C2C[C@@H](O)CN2C(=O)[C@H]([C@@H](C)O)NC1=O (stereo partly drawn) | >1.5 | 0 | 250 | 90 | 0.5 (≈ 0.429 µM) |  |
| CCC(C)CC(C)CCCCCCCCC(=O)NC1C[C@@H](O)[C@@H](OCCN)NC(=O)C2CN(C[C@@H]2O)C(=O)[C@H]([C@H](O)CCNC(=O)[C@@H](N)CCCCN)NC(=O)[C@H]([C@H](O)[C@@H](O)c2ccc(O)cc2)NC(=O)C2C[C@@H](O)CN2C(=O)[C@H]([C@@H](C)O)NC1=O (stereo partly drawn) | 0.09 | 0 | 60 | 3 | 0.125 (≈ 0.102 µM) | < 0.02 |
| CCC(C)CC(C)CCCCCCCCC(=O)NC1C[C@@H](O)[C@@H](O)NC(=O)C2CN(C[C@@H]2O)C(=O)[C@H]([C@H](O)CCNC(=O)CCCCN)NC(=O)[C@H]([C@H](O)[C@@H](O)c2ccc(O)cc2)NC(=O)C2C[C@@H](O)CN2C(=O)[C@H]([C@@H](C)O)NC1=O (stereo partly drawn) | 1.5 | 0 | 250 | 20 | 0.5 (≈ 0.435 µM) |  |
| CCC(C)CC(C)CCCCCCCCC(=O)NC1C[C@@H](O)[C@@H](O)NC(=O)C2CN(C[C@@H]2O)C(=O)[C@H]([C@H](O)CCNC(=O)CCCCCCN)NC(=O)[C@H]([C@H](O)[C@@H](O)c2ccc(O)cc2)NC(=O)C2C[C@@H](O)CN2C(=O)[C@H]([C@@H](C)O)NC1=O (stereo partly drawn) | >1.5 | 0 | 200 |  | 2 (≈ 1.7 µM) |  |
| CCC(C)CC(C)CCCCCCCCC(=O)NC1C[C@@H](O)[C@@H](O)NC(=O)C2CN(C[C@@H]2O)C(=O)[C@H]([C@H](O)CCNC(=O)CN)NC(=O)[C@H]([C@H](O)[C@@H](O)c2ccc(O)cc2)NC(=O)C2C[C@@H](O)CN2C(=O)[C@H]([C@@H](C)O)NC1=O (stereo partly drawn) | 0.375 | 20 | 250 | 15 | 0.5 (≈ 0.451 µM) |  |
| CCC(C)CC(C)CCCCCCCCC(=O)NC1C[C@@H](O)[C@@H](O)NC(=O)C2CN(C[C@@H]2O)C(=O)[C@H]([C@H](O)CCNC(=O)CCN)NC(=O)[C@H]([C@H](O)[C@@H](O)c2ccc(O)cc2)NC(=O)C2C[C@@H](O)CN2C(=O)[C@H]([C@@H](C)O)NC1=O (stereo partly drawn) | 1.5 | 100 | 250 | 25 | 0.125 (≈ 0.111 µM) |  |
| CCC(C)CC(C)CCCCCCCCC(=O)NC1C[C@@H](O)[C@@H](O)NC(=O)C2CN(C[C@@H]2O)C(=O)[C@H]([C@H](O)CCNC(=O)CCCN)NC(=O)[C@H]([C@H](O)[C@@H](O)c2ccc(O)cc2)NC(=O)C2C[C@@H](O)CN2C(=O)[C@H]([C@@H](C)O)NC1=O (stereo partly drawn) | 1.5 | 40 | > 100 | 50 | < 0.06 |  |
| CCC(C)CC(C)CCCCCCCCC(=O)NC1C[C@@H](O)[C@@H](O)NC(=O)C2CN(C[C@@H]2O)C(=O)[C@H]([C@H](O)CCNC(=O)[C@@H](N)CN)NC(=O)[C@H]([C@H](O)[C@@H](O)c2ccc(O)cc2)NC(=O)C2C[C@@H](O)CN2C(=O)[C@H]([C@@H](C)O)NC1=O (stereo partly drawn) | 1.5 | 100 | > 250 | 30 | 1 (≈ 0.879 µM) | > 1.25 |
| CCC(C)CC(C)CCCCCCCCC(=O)NC1C[C@@H](O)[C@@H](O)NC(=O)C2CN(C[C@@H]2O)C(=O)[C@H]([C@H](O)CCN)NC(=O)[C@H]([C@H](O)[C@@H](O)c2ccc(O)cc2)NC(=O)C2C[C@@H](O)CN2C(=O)[C@H]([C@@H](C)O)NC1=O (stereo partly drawn) (X1-[ξOrn(4R-OH,5R-OH)]T[ξPro(4R-OH)][hTyr(3S-OH,4S-OH)][Orn(3R-OH)][X2]; lactam 1-C) | 0.375 | 70 | 100 | 10 | < 0.06 | > 20 |
